Assay results published in patent publication US6737383B1, “Herbicidal oxadiazolidines” (priority 1999, dated 2004).

What was measured:
[1] = system: pigweed; experiment: Test B pre/postemergence pigweed; format: in vivo, Amaranthus retroflexus
In short: (§1)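 Test chemicals in a non-phytotoxic solvent mixture with surfactant were sprayed preemergence onto planted seeds and postemergence onto plants 2 to 18 cm tall (1- to 4-leaf stage). After twelve to sixteen days in a greenhouse, injury was visually rated against untreated controls from 0 (no effect) to 10 (complete control).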

[2] = system: smallflower flatsedge; experiment: Test B flood test smallflower flatsedge; format: in vivo, Cyperus difformis
In short: (§2)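 Plants were grown to the 2-leaf stage before treatment with test chemical, then held in a greenhouse for twelve to sixteen days. Injury was visually rated against untreated controls on a 0–10 scale, where 0 is no effect and 10 is complete control.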

[3] = system: bamyardgrass; experiment: Test B flood test barnyardgrass; format: in vivo, Echinochloa crus-galli
In short: as §2

[4] = system: sugar beet; experiment: Test B pre/postemergence sugar beet; format: in vivo, Beta vulgaris
In short: as §1

[5] = system: surinam grass; experiment: Test B pre/postemergence surinam grass; format: in vivo, Brachiaria decumbens
In short: as §1

[6] = system: giant foxtail; experiment: Test B pre/postemergence giant foxtail; format: in vivo, Setaria faberii
In short: as §1

[7] = system: wheat; experiment: Test B pre/postemergence wheat; format: in vivo, Triticum aestivum
In short: as §1

[8] = system: rape; experiment: Test B pre/postemergence rape; format: in vivo, Brassica napus
In short: as §1

[9] = system: velvetleaf; experiment: Test B pre/postemergence velvetleaf; format: in vivo, Abutilon theophrasti
In short: as §1

[10] = system: corn; experiment: Test B pre/postemergence corn; format: in vivo, Zea mays
In short: as §1

[11] = system: duck salad; experiment: Test B flood test duck salad; format: in vivo, Heteranthera limosa
In short: as §2

[12] = system: cocklebur; experiment: Test B pre/postemergence cocklebur; format: in vivo, Xanthium strumarium
In short: as §1

[13] = system: crabgrass; experiment: Test B pre/postemergence crabgrass; format: in vivo, Digitaria sanguinalis
In short: as §1

[14] = system: soybean; experiment: Test B pre/postemergence soybean; format: in vivo, Glycine max
In short: as §1

[15] = system: purple nutsedge; experiment: Test B pre/postemergence purple nutsedge; format: in vivo, Cyperus rotundus
In short: as §1

[16] = system: wild oat; experiment: Test B pre/postemergence wild oat; format: in vivo, Avena fatua
In short: as §1

[17] = Postemergence, Rate 250 g/ha, scale 0 to 10
[18] = Postemergence, Rate 500 g/ha, scale of 0 to 10 where 0 is no effect and 10 is complete control
[19] = Preemergence, Rate 62 g/ha, scale of 0 to 10 where 0 is no effect and 10 is complete control
[20] = Preemergence, Rate 125 g/ha, scale of 0 to 10 where 0 is no effect and 10 is complete control
[21] = Preemergence, Rate 250 g/ha, scale 0 to 10, 0 is no effect, 10 is complete control
[22] = Preemergence, Rate 500 g/ha, scale 0 to 10, 0 is no effect, 10 is complete control
[23] = Rate 62 g/ha, Postemergence, scale 0 to 10 (0 no effect, 10 complete control)
[24] = Rate 125 g/ha, Postemergence, scale 0 to 10, 0 is no effect, 10 is complete control
[25] = Rate 62 g/ha, flood test species, Pre-emergence, visual evaluation after twelve to sixteen days
[26] = Rate 125 g/ha, under heading Pre-emergence, flood test species, visual evaluation after twelve to sixteen days
[27] = Rate 250 g/ha, Pre-emergence (flood test species), scale 0 to 10, 0 is no effect, 10 is complete control
[28] = Rate 500 g/ha, Pre-emergence, flood test species, scale 0 to 10 (0 no effect, 10 complete control)

Compound: COCC(OC)n1c(=O)on(C(=O)N(c2ccc(F)cc2)C(C)C)c1=O (centres unmarked) [Compound 446]
- Redroot pigweed plant response rating [1, 17]: 0
- Redroot pigweed plant response rating [1, 18]: 0
- Plant response rating, Redroot pigweed [1, 19]: 6
- Plant response rating, Redroot pigweed [1, 20]: 10
- Redroot pigweed plant response rating [1, 21]: 10
- Redroot pigweed plant response rating [1, 22]: 10
- Redroot pigweed plant response rating [1, 23]: 0
- Redroot pigweed plant response rating [1, 24]: 0
- Plant response rating, S. Flatsedge (0 to 10 scale, 0 is no effect, 10 is complete control) [2, 25]: 0
- S. Flatsedge plant response rating (0 to 10 scale, 0 is no effect, 10 is complete control) [2, 26]: 0
- S. Flatsedge plant response rating [2, 27]: 0
- S. Flatsedge plant response rating [2, 28]: 0
- Plant response rating, Barnyardgrass (0 to 10 scale, 0 is no effect, 10 is complete control) [3, 25]: 0
- Barnyardgrass plant response rating (0 to 10 scale, 0 is no effect, 10 is complete control) [3, 26]: 0
- Barnyardgrass plant response rating [3, 27]: 0
- Barnyardgrass plant response rating [3, 28]: 0
- Sugarbeets plant response rating [4, 17]: 0
- Sugarbeets plant response rating [4, 18]: 0
- Plant response rating, Sugarbeets [4, 19]: 0
- Plant response rating, Sugarbeets [4, 20]: 4
- Sugarbeets plant response rating [4, 21]: 6
- Sugarbeets plant response rating [4, 22]: 8
- Sugarbeets plant response rating [4, 23]: 0
- Sugarbeets plant response rating [4, 24]: 0
- B. signalgrass plant response rating ([5]; Postemergence, Rate 250 g/ha, scale 0 to 10, 0 no effect, 10 complete control): 6
- B. signalgrass plant response rating [5, 18]: 8
- Plant response rating, B. signalgrass [5, 19]: 0
- Plant response rating, B. signalgrass [5, 20]: 6
- B. signalgrass plant response rating [5, 21]: 7
- B. signalgrass plant response rating [5, 22]: 8
- B. signalgrass plant response rating [5, 23]: 2
- B. signalgrass plant response rating [5, 24]: 3
- Giant foxtail plant response rating [6, 17]: 9
- Giant foxtail plant response rating [6, 18]: 9
- Plant response rating, Giant foxtail [6, 19]: 9
- Plant response rating, Giant foxtail [6, 20]: 10
- Giant foxtail plant response rating [6, 21]: 10
- Giant foxtail plant response rating [6, 22]: 10
- Giant foxtail plant response rating [6, 23]: 6
- Giant foxtail plant response rating [6, 24]: 9
- Wheat plant response rating [7, 17]: 3
- Wheat plant response rating [7, 18]: 3
- Plant response rating, Wheat [7, 19]: 0
- Plant response rating, Wheat [7, 20]: 2
- Wheat plant response rating [7, 21]: 3
- Wheat plant response rating [7, 22]: 7
- Wheat plant response rating [7, 23]: 0
- Wheat plant response rating [7, 24]: 0
- Rape plant response rating [8, 17]: 0
- Rape plant response rating [8, 18]: 0
- Plant response rating, Rape [8, 19]: 0
- Plant response rating, Rape [8, 20]: 0
- Rape plant response rating [8, 21]: 8
- Rape plant response rating [8, 22]: 10
- Rape plant response rating [8, 23]: 0
- Rape plant response rating [8, 24]: 0
- Velvetleaf plant response rating [9, 17]: 2
- Velvetleaf plant response rating [9, 18]: 3
- Plant response rating, Velvetleaf [9, 19]: 0
- Plant response rating, Velvetleaf [9, 20]: 3
- Velvetleaf plant response rating [9, 21]: 7
- Velvetleaf plant response rating [9, 22]: 10
- Velvetleaf plant response rating [9, 23]: 0
- Velvetleaf plant response rating [9, 24]: 0
- Corn plant response rating [10, 17]: 0
- Corn plant response rating [10, 18]: 5
- Plant response rating, Corn [10, 19]: 0
- Plant response rating, Corn [10, 20]: 0
- Corn plant response rating [10, 21]: 2
- Corn plant response rating [10, 22]: 6
- Corn plant response rating [10, 23]: 0
- Corn plant response rating [10, 24]: 0
- Plant response rating, Ducksalad (0 to 10 scale, 0 is no effect, 10 is complete control) [11, 25]: 0
- Ducksalad plant response rating (0 to 10 scale, 0 is no effect, 10 is complete control) [11, 26]: 0
- Ducksalad plant response rating [11, 27]: 0
- Ducksalad plant response rating [11, 28]: 0
- Cocklebur plant response rating [12, 17]: 0
- Cocklebur plant response rating [12, 18]: 0
- Plant response rating, Cocklebur [12, 19]: 0
- Plant response rating, Cocklebur [12, 20]: 0
- Cocklebur plant response rating [12, 21]: 0
- Cocklebur plant response rating [12, 22]: 0
- Cocklebur plant response rating [12, 23]: 0
- Cocklebur plant response rating [12, 24]: 0
- Crabgrass plant response rating [13, 17]: 9
- Crabgrass plant response rating [13, 18]: 9
- Plant response rating, Crabgrass [13, 19]: 8
- Plant response rating, Crabgrass [13, 20]: 8
- Crabgrass plant response rating [13, 21]: 9
- Crabgrass plant response rating [13, 22]: 9
- Crabgrass plant response rating [13, 23]: 5
- Crabgrass plant response rating [13, 24]: 9
- Soybean plant response rating [14, 17]: 4
- Soybean plant response rating [14, 18]: 4
- Plant response rating, Soybean [14, 19]: 0
- Plant response rating, Soybean [14, 20]: 0
- Soybean plant response rating [14, 21]: 2
- Soybean plant response rating [14, 22]: 2
- Soybean plant response rating [14, 23]: 1
- Soybean plant response rating [14, 24]: 2
- Nutsedge plant response rating [15, 17]: 0
- Nutsedge plant response rating [15, 18]: 0
- Plant response rating, Nutsedge [15, 19]: 0
- Plant response rating, Nutsedge [15, 20]: 0
- Nutsedge plant response rating [15, 21]: 0
- Nutsedge plant response rating [15, 22]: 0
- Nutsedge plant response rating [15, 23]: 0
- Nutsedge plant response rating [15, 24]: 0
- Wild oats plant response rating [16, 17]: 3
- Wild oats plant response rating [16, 18]: 3
- Plant response rating, Wild oats [16, 19]: 0
- Plant response rating, Wild oats [16, 20]: 5
- Wild oats plant response rating [16, 21]: 8
- Wild oats plant response rating [16, 22]: 10
- Wild oats plant response rating [16, 23]: 0
- Wild oats plant response rating [16, 24]: 0
